# Measured values from US10278395B2, “Functionalized environmentally benign nanoparticles” (North Carolina State University, priority 2013, dated 2019).
# What was measured:
# E. coli BL21 (DE3) = experiment: Quantitative antimicrobial test on E. coli (wet method, CFU reduction efficiency); format: cell-based, Escherichia coli; details: for CFU reduction efficiency: 40 ppm
# Description: We performed quantitative antimicrobial tests on Gram-negative E. coli BL21 (DE3), a common human pathogen, and qualitative tests on Gram-negative P. aeruginosa, a human pathogen not susceptible to antimicrobial amines such as BPEI and […]. Therefore, any antimicrobial activity in the P. aeruginosa tests will predominantly stem from silver. The activity of each active agent was determined by comparing the number of colony forming units (CFU) of a reference plate with the CFU of a test plate as depicted in FIG. 20. The reduction of CFU on a test plate with antimicrobial agent is time dependent and concentration dependent. […] We quantified by the antimicrobial reduction efficiency “E” with the following equation The schematic in FIG. 21 describes the wet method procedure that was followed for antimicrobial tests on both E. coli and P. aeruginosa. First, 200 μl of each active agent was placed into separate low retention centrifuge tubes. 100 μl of PBS buffer was added to each tube to baseline the ionic strength, and to adjust the pH value to 7. […] The samples were continuously vortexed. After the bacteria were exposed to the active agent for 1 minute, the survival rate of the bacteria was determined by plating 100 μl of each sample evenly distributed on Luria-Bertani agar plates. The procedure was repeated after 30 minutes of exposure time. After the plating procedure, the petri dishes were sealed and incubated upside-down for 48 h at 37° C.
# Pseudomonas aeruginosa = experiment: Qualitative antimicrobial test on P. aeruginosa (wet method, growth on plates); format: cell-based; details: for antimicrobial effect (in words): 30 minutes incubation time
# Description: We performed quantitative antimicrobial tests on Gram-negative E. coli BL21 (DE3), a common human pathogen, and qualitative tests on Gram-negative P. aeruginosa, a human pathogen not susceptible to antimicrobial amines such as BPEI and […]. Therefore, any antimicrobial activity in the P. aeruginosa tests will predominantly stem from silver. The activity of each active agent was determined by comparing the number of colony forming units (CFU) of a reference plate with the CFU of a test plate as depicted in FIG. 20. The reduction of CFU on a test plate with antimicrobial agent is time dependent and concentration dependent. The schematic in FIG. 21 describes the wet method procedure that was followed for antimicrobial tests on both E. coli and P. aeruginosa. First, 200 μl of each active agent was placed into separate low retention centrifuge tubes. 100 μl of PBS buffer was added to each tube to baseline the ionic strength, and to adjust the pH value to 7. […] The samples were continuously vortexed. After the bacteria were exposed to the active agent for 1 minute, the survival rate of the bacteria was determined by plating 100 μl of each sample evenly distributed on Luria-Bertani agar plates. The procedure was repeated after 30 minutes of exposure time. After the plating procedure, the petri dishes were sealed and incubated upside-down for 48 h at 37° C.
compound,measurement,setting,value
"O=[N+]([O-])[O-].[Ag+] [AgNO3, silver nitrate]",Ag concentration at which antimicrobial effects were exhibited,E. coli BL21 (DE3),40 ppm Ag
same,CFU reduction efficiency,E. coli BL21 (DE3); 1 min vortex time,53.33%
same,CFU reduction efficiency,E. coli BL21 (DE3); 30 min vortex time,96.19%
same,Pseudomonas aeruginosa growth,"Pseudomonas aeruginosa; 1 min vortex time or contact time, 10 ppm",Yes
same,Pseudomonas aeruginosa growth,"Pseudomonas aeruginosa; 1 min vortex time or contact time, 20 ppm",Yes
same,antimicrobial effect (in words),Pseudomonas aeruginosa; 20 ppm Ag,no complete antimicrobial effect
same,antimicrobial effect (in words),Pseudomonas aeruginosa; concentration not given,no complete antimicrobial effect
same,Pseudomonas aeruginosa growth,"Pseudomonas aeruginosa; 30 min vortex time or contact time, 10 ppm",Yes
same,Pseudomonas aeruginosa growth,"Pseudomonas aeruginosa; 30 min vortex time or contact time, 20 ppm",Yes
